Measured values: patent US8119657B2, “Enantiomeric compositions of 2-amino-1-(2-isopropylpyrazolo[1,5-α]pyridin-3-yl)propan-1-one and related methods” (MediciNova, Inc., priority 2009, dated 2012)
Entries after “also recorded” stand apart in the source; their conditions may differ. Marks after values point to notes of the source that are not given here.

Experiments:
Rolipram binding site = experiment: Inhibition of binding at the Rolipram binding site; conditions: 10 uM
[1] = Chiral and chemical stability in solution and on storage; type: physicochemical
Source text: Without ascribing to any particular theory, the present inventors believe that the facile separation of enantiomers using the N-protected racemate of AV1013 is probably due to the greater stability of the racemate as well as the separate enantiomers in protected form. […] Unstability also stems from the ability of the free base to self condense. Because self-condensation is promoted in concentrated solutions, it is desirable to avoid highly concentrated solutions of the free base form of optically active AV1013. Likewise, the free base form of racemic AV1013 or its hydrochloride salt are also unstable, precluding their use as precursors to obtaining (S)-AV1013 as a free base or its hydrochloride salt in high yield and/or high purity.
Thus, it is often desirable to re-purify the de-protected product using purification techniques known in the art. For example, any one or more of the methods described above for separating chiral molecules, such as, chromatography (e.g., HPLC, GC, and SFC), crystallization, fractional crystallization, and the like may be used for re-purification. An exemplary method is recrystallization. Purification by recrystallization allows separation of the desired (S)-enantiomer in high purity, such that the overall reaction sequence including isolation of the desired (S)-enantiomer requires only a single chromatographic step (i.e., the chiral separation). Recrystallization can be carried out in any of a number of single or mixed solvent systems including alcohols, ethers, esters, nitriles, halogenated hydrocarbons, amides and aqueous mixtures thereof. Suitable solvents include methanol, ethanol, propanol, iso-propanol, acetone, tetrahyrofuran, methyl ethyl ketone, methyl isobutyl ketone, ethyl acetate, amyl acetate, acetonitrile, diethyl ether, methyl tert-butyl ether, dichloromethane, dichloroethane, chloroform, dimethylformamide, and combinations thereof. Illustrative mixed solvent systems used to recrystallize (S)-AV1013 are iso-propanol/methyl tert-butyl ether and ethanol/methyl tert-butyl ether.
The five-step route provided a 15% overall yield of (S)-AV1013.HCl. The chiral separation, by SFC chromatography, is the only chromatographic step required. Hydrolysis of the N-protected (S)-AV1013, followed by recrystallization from iso-propanol/methyl tert-butyl ether provided (S)-AV1013.HCl in greater than 99% chemical purity and greater than 97% S-enantiomer (greater than 94% enantiomeric excess (ee)) by chiral HPLC, as determined from the equation ee=[|R−S^51÷(R+S)]×100 ee=[|R−S|÷(R+S)]×100. […] Even under optimal storage and handling conditions to minimize exposure to moisture, a small degree of racemization (i.e., approximately 2%) was observed. Recrystallization was effective to improve enantiomeric purity to arrive at a product having an illustrative chiral purity as described above. […] The recrystallized (S)-AV 1013.HCl contained approximately 25 mole percent alcohol (less than about 10% by weight) even when dried at 50° C. Thus, it appears that the resultant product is formed as a solvate under the recrystallization and drying conditions employed.

[2] = system: rat chronic constriction injury model of neuropathic pain; experiment: Rat chronic constriction injury model of neuropathic pain (von Frey mechanical allodynia); type: in vivo; conditions: for in vivo activity in a rat model of neuropathic pain: dose not stated
Source text: The (S)- and the (R)-enantiomer of AV1013 were each evaluated in a rat chronic constriction injury model of neuropathic pain (see, Ledeboer et. al., Neuron Glia Biology, (2006), p 279-291), to determine whether differences in their activity could be observed.
To induce allodynia, male Sprague-Dawley rats underwent chronic constriction injury (CCI) to the sciatic nerve as described by Bennett and Xie, Pain 1988; 33(1):87-107. The plantar surface of the hind paws was stimulated with von Frey filaments (Stoelting) to induce a withdrawal response by blinded personnel. The bending force of fiber required to induce a 50% withdrawal response was calculated following CCI surgery (pre-dosing baseline).
Allodynic rats (N=5-6), received an oral administration of (S)-AV1013 (25 mg/kg), AV1013-R (100 mg/kg) or vehicle. Two hours post-dosing, 50% paw withdrawal threshold was determined by blinded testers using von Frey filaments. The 50% withdrawal threshold prior to CCI surgery, pre-dosing (10 days post-surgery), and 2 hours post-dosing are plotted in FIG. 3.

[3] = Rat pharmacokinetics of the enantiomers after oral dosing of racemic AV1013; type: in vivo
Experimental: Three male Sprague-Dawley rats were dosed orally via gavage with 25 mg/kg racemic AV1013 dissolved in water. Serial blood samples were collected from the tail vein at 5, 15, and 30 min, 1, 3, and 6 hours post dosing. Samples were processed for plasma via centrifugation and plasma samples were stored frozen prior to analysis.
(§1) A sensitive and specific chiral HPLC/MS/MS bioanalytical method for the detection of (S)-AV1013 and (R)-AV1013 enantiomers in rat and dog plasma was utilized. AV1013 enantiomers and the internal standard (AV1040, an analog of AV1013) were isolated from plasma by protein precipitation induced by acetonitrile. After centrifugation to sediment the proteins, the supernatant fractions were analyzed by high performance liquid chromatography (LC) in conjunction with a triple quadrupole mass spectrometer that used electrospray ionization in tandem with positive ionization (MS/MS) according to the conditions below. The LLOQ (lower level of quantitation) was typically <3 ng/mL.
(§2) Analysis of pharmacokinetic parameters was performed for each enantiomer via LC/MS bioanalytics and WinNonlin™ analysis (version 4.0.1; Pharsight Corp., Mountain View, Calif.), commercial software designed for the analysis of PK data. The PK modeling was based on a non-compartmental model with gradual input into the central compartment. Computation of the area under the curve (AUC) was based on the sum of trapezoidal areas for the plotted plasma concentration-time data. AUC and associated parameters were estimated by log-linear regression analysis of the terminal phase.

[4] = Dog pharmacokinetics of the enantiomers after oral dosing of racemic AV1013; type: in vivo
Experimental: Three male beagle dogs were dosed orally with 10 mg/kg racemic AV1013 via gavage. AV1013 was dissolved in water at 5 mg/ml and dosed via gavage at a volume of 2 ml/kg. Blood samples were collected via the jugular vein at 5, 15 and 30 minutes, 1, 2, 4, 6, 8, and 24 hours post dosing.
as §1, §2

[5] = target: T1, rhMIF (recombinant human Macrophage migration Inhibitory Factor) (Homo sapiens, UniProt P14174); experiment: MIF-induced migration of human peripheral blood monocytes (PBMCs); type: cell-based; conditions: rhMIF 90 nM, dilution series of inhibitor
T1 sequence (P14174 2-115 limits assumed): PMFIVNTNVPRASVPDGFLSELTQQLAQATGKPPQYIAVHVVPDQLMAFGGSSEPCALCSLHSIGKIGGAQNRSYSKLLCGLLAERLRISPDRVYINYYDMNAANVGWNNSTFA
Experimental: The chemo attractant activities of rhMIF (recombinant human Macrophage migration Inhibitory Factor) and the effect of inhibitors were measured using human peripheral blood monocytes (PBMCs) isolated from whole blood by centrifugation on Histopaque-1077 (Sigma). The cells were washed in RPMI-1640, diluted to 1×10^6 cells/ml and analyzed immediately. These assays were carried out in 24 well tissue culture plates utilizing 8.0 μm cell culture inserts (Falcon). Recombinant hMIF (90 nM), diluted in RPMI was placed in the cells of a 24 well plate with or without inhibitor (10-fold molar excess or dilution series) and allowed to incubate for 30 min at 37° C., 5% CO2. Washed human monocytes were added to the upper chamber of 8.0 μm cell culture inserts and allowed to incubate for 3 hrs at 37° C., 5% CO2. Cells that migrate through the membrane were fixed in methanol and stained with Geimsa, prior to cell counting using light microscopy.
Results are expressed as the mean number of cells counted per high power field for each of two replicates to obtain statistically significant data. (Legend: −Star=no human MIF, Skull=no human MIF+10 uM (S)-AV1013. See FIGS. 5A and 5B.

formalin paw model = experiment: Inflammatory pain model (formalin paw model) in mice; type: in vivo; conditions: mice, 300 mg/kg p.o. 60 min before the test
Experimental: The model employed is described in detail by Wheeler-Aceto et al (Psychopharmacology, 104, p 35-44, (1991)). Briefly, mice were given an intraplantar injection of 5% formalin (25 μl) into the posterior left paw. […] Mice were briefly observed at 1 minute intervals between 15 and 50 minutes after the injection of formalin and the number of times mice were observed licking the injected paw was recorded. 10 mice were studied in each group. The test was performed blind.
AV1013-S was evaluated at 3 doses (10, 25 and 50 mg/kg), administered p.o. 60 minutes before the test (i.e. 45 minutes before formalin), and compared with a vehicle control group. Gabapentin (300 mg/kg p.o.), administered under the same experimental conditions, was used as reference substance. The experiment therefore included 5 groups.
Data were analyzed by comparing treated groups with vehicle control using unpaired Mann-Whitney U tests.

[6] = oral 25 mg/kg racemic AV1013, plasma
[7] = oral dosing of racemate, rounded values
[8] = beagle dog, oral 10 mg/kg racemic AV1013, plasma
[9] = dog, oral dosing of racemate, rounded values

Which results are given for `CC(N)C(=O)c1c(C(C)C)nn2ccccc12` (racemic) [AV1013, 2-amino-1-(2-isopropylpyrazolo[1,5-a]pyridin-3-yl)propan-1-one]?
inhibition of the Rolipram binding site (Rolipram binding site): 43%; stability / racemization in solution ([1]; free base (or hydrochloride salt where stated), in solution): unstable; in vivo activity in a rat model of neuropathic pain [2]: significant in vivo activity

With `CC(C)c1nn2ccccc2c1C(=O)[C@@H](C)N` [(R)-AV1013] as the compound, how does the AUC last [3, 6] read?
Its AUC last is 0.34 µg·h/mL.

What about the Cmax [3, 6] of the same compound?
Its Cmax is 0.19 µg/mL.

And the “calculated area under the curves (AUC)” value [3, 7]?
The value was 0.3 µg·h/mL.

And the “mean peak plasma levels (Cmax)” value [3, 7]?
The value was 0.2 µg/mL.

And the “in vivo activity in a rat model of neuropathic pain” value [2]?
The value was “little or no in vivo activity”.

And the “attenuation of mechanical allodynia (50% paw withdrawal threshold)” value ([2]; rat CCI, oral 100 mg/kg, 2 hours post-dosing)?
The value was “essentially no activity”.

What about the AUC last [4, 8] of the same compound?
Its AUC last is 7.64 µg·h/mL.

And the Cmax [4, 8]?
The Cmax was 1.14 µg/mL.

And the “calculated area under the curves (AUC)” value [4, 9]?
The value was 7.6 µg·h/mL.

What about the “mean peak plasma levels (Cmax)” value [4, 9] of the same compound?
Its value is 1.1 µg/mL.

And the “antagonism of MIF-induced cell migration” value [5]?
Its value is “antagonize MIF-induced macrophage migration in a dose-dependent fashion; also recorded: antagonize MIF-induced mononuclear cell migration in a similar dose dependent fashion”.

For `CC(C)c1nn2ccccc2c1C(=O)[C@H](C)N.Cl` [(S)-AV1013.HCl, (S)-2-Amino-1-(2-isopropylpyrazolo[1,5-a]pyridin-3-yl)propan-1-one hydrochloride], which “degree of racemization on storage” value ([1]; hydrochloride salt, optimal storage and handling conditions to minimize exposure to moisture) is on record?
The value was “approximately 2%”.

With `NCC1(CC(=O)O)CCCCC1` [Gabapentin, reference compound] as the compound, how does the “% Change from Control” value (formalin paw model) read?
Its value is −83%.

What about the “Licking Score (Mean +/− SEM)” value (formalin paw model; p < 0.01) of the same compound?
The value was 2.6 +/− 0.8 *.
